Tested on: Endogenous Huntingtin Protein
Assay: Endogenous Huntingtin Protein Assay (ELISA-based MSD electrochemiluminescence)
Type: cell-based
Conditions: Table 2; MSD plates coated with MW1 (expanded polyglutamine) or MAB2166 capture antibody; "inactive" = result above the detection limit of the assay
Summary of the method: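 MSD electrochemiluminescence sandwich ELISA: capture with MW1 (expanded polyQ) or MAB2166 at 1 µg/mL, samples incubated overnight at 4 °C. Detection by rabbit mAb #56565 then SULFO-TAG anti-rabbit antibody, each 0.25 µg/mL for 1 h at room temperature, read in buffer T on SI 6000 imager.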

Question: For `Cn1nc2cc(-c3cnc(-c4cnc(N5CCN[C@@H](C6CC6)C5)nn4)c(O)c3)cnc2n1` [Cpd 180, 2-{3-[(3S)-3-cyclopropylpiperazin-1-yl]-1,2,4-triazin-6-yl}-5-(2-methyl-2H-[1,2,3]triazolo[4,5-b]pyridin-6-yl)pyridin-3-ol], which IC50 is on record?
Answer: The IC50 was 0.0276 µM.

Question: For `CC(C)[C@H]1CN(c2ncc(-c3ccc(-c4ccc5nsnc5c4)cc3O)nn2)CCN1` [Cpd 263, 5-(2,1,3-benzothiadiazol-5-yl)-2-{3-[(3S)-3-(propan-2-yl)piperazin-1-yl]-1,2,4-triazin-6-yl]phenol], which IC50 is on record?
Answer: The IC50 was 0.214 µM.

Question: How did the IC50 turn out when `Cn1cc2cc(-c3ccc(-c4cnc(N5CCN6CCCC6C5)nn4)c(O)c3)cc(F)c2n1` (centres unmarked) [Cpd 95, 5-(7-fluoro-2-methyl-2H-indazol-5-yl)-2-[3-(hexahydropyrrolo[1,2-a]pyrazin-2(1H)-yl)-1,2,4-triazin-6-yl]phenol] was run?
Answer: Its IC50 is 0.0083 µM.

Question: “2-{3-[(3S,5R)-3-tert-butyl-5-methylpiperazin-1-yl]-1,2,4-triazin-6-yl}-5-(1,2,4-thiadiazol-3-yl)phenol [Cpd 254]” was tested. Which IC50 did it give?
Answer: Its IC50 is 0.556 µM.

Question: `CC(C)[C@H]1CN(c2ncc(-c3ccc(-c4ccns4)cc3O)nn2)CCN1` [Cpd 270, 2-{3-[(3S)-3-(propan-2-yl)piperazin-1-yl]-1,2,4-triazin-6-yl}-5-(1,2-thiazol-5-yl)phenol] was tested. Which IC50 did it give?
Answer: The IC50 was 0.0292 µM.

Question: With `COc1cc(-c2ccc(-c3cnc(N4C[C@@H](C)N[C@@H](C5CC5)C4)nn3)c(O)c2)ccn1` [Cpd 256, 2-{3-[(3S,5R)-3-cyclopropyl-5-methylpiperazin-1-yl]-1,2,4-triazin-6-yl}-5-(2-methoxypyridin-4-yl)phenol] as the compound, how does the IC50 read?
Answer: Its IC50 is 0.0124 µM.

Question: `C[C@H]1CN(c2ncc(-c3ccc(-c4cn[nH]c4)cc3O)nn2)[C@@H](C)CN1` [Cpd 176, 2-{3-[(2S,5S)-2,5-dimethylpiperazin-1-yl]-1,2,4-triazin-6-yl}-5-(1H-pyrazol-4-yl)phenol] was tested. Which IC50 did it give?
Answer: Its IC50 is 0.619 µM.

Question: For `Cc1cnn(-c2ccc(-c3cnc(N4CCN[C@H](C5CC5)C4)nn3)c(O)c2)n1` [Cpd 183, 2-{3-[(3R)-3-cyclopropylpiperazin-1-yl]-1,2,4-triazin-6-yl}-5-(4-methyl-2H-1,2,3-triazol-2-yl)phenol], which IC50 is on record?
Answer: The IC50 was 0.0188 µM.

Question: `CC(C)(C)[C@H]1CN(c2ncc(-c3ccc(-c4cn[nH]c4)cc3O)nn2)CCN1` [Cpd 16, 2-{3-[(3S)-3-tert-butylpiperazin-1-yl]-1,2,4-triazin-6-yl}-5-(1H-pyrazol-4-yl)phenol] was tested. Which IC50 did it give?
Answer: Its IC50 is 0.0132 µM.

Question: `Oc1cc(-c2ccsn2)ccc1-c1cnc(N2CCN[C@@H](C3CC3)C2)nn1` [Cpd 252, 2-{3-[(3S)-3-cyclopropylpiperazin-1-yl]-1,2,4-triazin-6-yl}-5-(1,2-thiazol-3-yl)phenol] was tested. Which IC50 did it give?
Answer: The IC50 was 0.0165 µM.

Question: `Cn1cc(-c2ccc(-c3cnc(N4CCN[C@@H](C5CC5)C4)nn3)c(O)c2)cn1` [Cpd 12, 2-{3-[(3S)-3-cyclopropylpiperazin-1-yl]-1,2,4-triazin-6-yl}-5-(1-methyl-1H-pyrazol-4-yl)phenol] was tested. Which IC50 did it give?
Answer: Its IC50 is 0.0109 µM.

Question: With `Cc1nc2nc(-c3ccc(-c4cnc(N5CCN[C@@H](C6CC6)C5)nn4)c(O)c3)nc(C)c2[nH]1` [Cpd 84, 2-{3-[(3S)-3-cyclopropylpiperazin-1-yl]-1,2,4-triazin-6-yl]-5-(6,8-dimethyl-7H-purin-2-yl)phenol] as the compound, how does the IC50 read?
Answer: The IC50 was 0.0059 µM.

Question: For `CN1CCN(c2ncc(-c3ccc(-c4cn[nH]c4)cc3O)nn2)CC1C1COC1` (centres unmarked) [Cpd 187, 2-{3-[4-methyl-3-(oxetan-3-yl)piperazin-1-yl]-1,2,4-triazin-6-yl}-5-(1H-pyrazol-4-yl)phenol], which IC50 is on record?
Answer: Its IC50 is 0.401 µM.

Question: For `Cn1nnc2cnc(-c3ccc(-c4cnc(N5CCN[C@@H](C6CC6)C5)nn4)c(O)c3)cc21` [Cpd 174, 2-{3-[(3S)-3-cyclopropylpiperazin-1-yl]-1,2,4-triazin-6-yl}-5-(1-methyl-1H-[1,2,3]triazolo[4,5-c]pyridin-6-yl)phenol], which IC50 is on record?
Answer: Its IC50 is 0.607 µM.

Question: `CC(C)[C@H]1CN(c2ncc(-c3ccc(-c4ccc5nncn5c4)cc3O)nn2)CCN1` [Cpd 115, 2-{3-[(3S)-3-(propan-2-yl)piperazin-1-yl]-1,2,4-triazin-6-yl}-5-([1,2,4]triazolo[4,3-a]pyridin-6-yl)phenol] was tested. Which IC50 did it give?
Answer: The IC50 was 0.179 µM.

Question: Which IC50 does the source give for `Cn1cc2cc(-c3ccc(-c4cnc(N5CCN6CCC[C@@H]6C5)nn4)c(O)c3)cc(F)c2n1` [Cpd 105, 5-(7-fluoro-2-methyl-2H-indazol-5-yl)-2-{3-[(8aR)-hexahydropyrrolo[1,2-a]pyrazin-2(1H)-yl]-1,2,4-triazin-6-yl}phenol] here?
Answer: The IC50 was 0.0153 µM.

Question: How did the IC50 turn out when `CC(C)[C@H]1CN(c2ncc(-c3ccc(-c4nc(C#N)cs4)cc3O)nn2)CCN1` [Cpd 273, 2-(3-hydroxy-4-{3-[(3S)-3-(propan-2-yl)piperazin-1-yl]-1,2,4-triazin-6-yl}phenyl)-1,3-thiazole-4-carbonitrile] was run?
Answer: Its IC50 is 0.646 µM.

Question: How did the IC50 turn out when `CC(C)[C@H]1CN(c2ncc(-c3ccc(-n4nccn4)cc3O)nn2)CCN1` [Cpd 154, 2-{3-[(3S)-3-(propan-2-yl)piperazin-1-yl]-1,2,4-triazin-6-yl}-5-(2H-1,2,3-triazol-2-yl)phenol] was run?
Answer: The IC50 was 0.0187 µM.

Question: `Oc1cc(-c2cn[nH]c2)ccc1-c1cnc(N2CCNC(c3ccccc3)C2)nn1` (centres unmarked) [Cpd 61, 2-[3-(3-phenylpiperazin-1-yl)-1,2,4-triazin-6-yl]-5-(1H-pyrazol-4-yl)phenol] was tested. Which IC50 did it give?
Answer: Its IC50 is 1.44 µM.

Question: For `Cc1nc(-c2ccc(-c3cnc(N4CCN[C@@H](C5CC5)C4)nn3)c(O)c2)ns1` [Cpd 245, 2-{3-[(3S)-3-cyclopropylpiperazin-1-yl]-1,2,4-triazin-6-yl}-5-(5-methyl-1,2,4-thiadiazol-3-yl)phenol], which IC50 is on record?
Answer: Its IC50 is 0.0115 µM.

Question: Which IC50 does the source give for `Cc1nc2c(C)cc(-c3ccc(-c4cnc(N5C[C@@H](C)N[C@@H](C)C5)nn4)c(O)c3)nn2n1` [Cpd 83, 2-{3-[(3R,5S)-3,5-dimethylpiperazin-1-yl]-1,2,4-triazin-6-yl}-5-(2,8-dimethyl[1,2,4]triazolo[1,5-b]pyridazin-6-yl)phenol] here?
Answer: Its IC50 is 0.0056 µM.

Question: For `Oc1cc(-c2ccncn2)ccc1-c1cnc(N2CCN[C@@H](C3CC3)C2)nn1` [Cpd 192, 2-{3-[(3S)-3-cyclopropylpiperazin-1-yl]-1,2,4-triazin-6-yl}-5-(pyrimidin-4-yl)phenol], which IC50 is on record?
Answer: Its IC50 is 0.0342 µM.

Question: How did the IC50 turn out when `Cc1nc2ncc(-c3ccc(-c4cnc(N5C[C@@H](C)N[C@@H](C)C5)nn4)c(O)c3)cn2n1` [Cpd 112, 2-{3-[(3R,5S)-3,5-dimethylpiperazin-1-yl]-1,2,4-triazin-6-yl}-5-(2-methyl[1,2,4]triazolo[1,5-a]pyrimidin-6-yl)phenol] was run?
Answer: The IC50 was 0.034 µM.

Question: How did the IC50 turn out when `CC(C)C1CN(c2ncc(-c3ccc(-c4cc(F)c5nn(C)cc5c4)cc3O)nn2)CCN1` (centres unmarked) [Cpd 71, 5-(7-fluoro-2-methyl-2H-indazol-5-yl)-2-{3-[3-(propan-2-yl)piperazin-1-yl]-1,2,4-triazin-6-yl}phenol] was run?
Answer: Its IC50 is 0.004 µM.

Question: With `C[C@@H]1CN(c2ncc(-c3ccc(-c4cc5nn(C)nc5cn4)cc3O)nn2)C[C@H](C)N1` [Cpd 198, 2-{3-[(3R,5S)-3,5-dimethylpiperazin-1-yl]-1,2,4-triazin-6-yl}-5-(2-methyl-2H-[1,2,3]triazolo[4,5-c]pyridin-6-yl)phenol] as the compound, how does the IC50 read?
Answer: Its IC50 is 0.0125 µM.

Question: `Cc1nnn2cc(-c3ccc(-c4cnc(N5C[C@@H](C)N[C@@H](C)C5)nn4)c(O)c3)ccc12` [Cpd 206, 2-{3-[rac-(3R,5S)-3,5-dimethylpiperazin-1-yl]-1,2,4-triazin-6-yl}-5-(3-methyl[1,2,3]triazolo[1,5-a]pyridin-6-yl)phenol] was tested. Which IC50 did it give?
Answer: Its IC50 is 0.0337 µM.

Question: With `C[C@@H]1CN(c2ncc(-c3ccc(-c4ccc5nc(C(F)(F)F)cn5n4)cc3O)nn2)C[C@H](C)N1` [Cpd 118, 2-{3-[(3R,5S)-3,5-dimethylpiperazin-1-yl]-1,2,4-triazin-6-yl)-5-[2-(trifluoromethyl)imidazo[1,2-b]pyridazin-6-yl]phenol] as the compound, how does the “IC50 (nM)” value read?
Answer: Its value is “inactive”.

Question: For `CC(C)C1CN(c2ncc(-c3ccc(-c4cn[nH]c4)cc3O)nn2)CCN1C` (centres unmarked) [Cpd 34, 2-{3-[4-methyl-3-(propan-2-yl)piperazin-1-yl]-1,2,4-triazin-6-yl}-5-(1H-pyrazol-4-yl)phenol], which IC50 is on record?
Answer: Its IC50 is 0.042 µM.

Question: For `[2H]C([2H])([2H])Oc1cc(-c2ccc(-c3cnc(N4CCN[C@@H](C(C)C)C4)nn3)c(O)c2)ncn1` [Cpd 10, 5-{6-[(^2H3)methyloxy]pyrimidin-4-yl}-2-{3-[(3S)-3-(propan-2-yl)piperazin-1-yl]-1,2,4-triazin-6-yl}phenol], which IC50 is on record?
Answer: Its IC50 is 0.0095 µM.

Question: With `Oc1cc(-c2cn[nH]c2)ccc1-c1cnc(N2CCNC(C3(O)CC3)C2)nn1` (centres unmarked) [Cpd 6, 2-{3-[3-(1-hydroxycyclopropyl)piperazin-1-yl]-1,2,4-triazin-6-yl}-5-(1H-pyrazol-4-yl)phenol] as the compound, how does the IC50 read?
Answer: Its IC50 is 0.0067 µM.

Question: For `Cc1cn2cc(-c3ccc(-c4cnc(N5C[C@@H](C)N[C@@H](C)C5)nn4)c(O)c3)cc(F)c2n1` [Cpd 66, 2-{3-[(3R,5S)-3,5-dimethylpiperazin-1-yl]-1,2,4-triazin-6-yl]-5-(8-fluoro-2-methylimidazo[1,2-a]pyridin-6-yl)phenol], which IC50 is on record?
Answer: Its IC50 is 0.0037 µM.

Question: With `C=CC1CN(c2ncc(-c3ccc(-c4cn[nH]c4)cc3O)nn2)CCN1` (centres unmarked) [Cpd 38, 2-[3-(3-ethenylpiperazin-1-yl)-1,2,4-triazin-6-yl]-5-(1H-pyrazol-4-yl)phenol] as the compound, how does the IC50 read?
Answer: Its IC50 is 0.0562 µM.

Question: With `Cn1cc2cc(-c3ccc(-c4cnc(N5CCNC(CO)C5)nn4)c(O)c3)cc(F)c2n1` (centres unmarked) [Cpd 65, 5-(7-fluoro-2-methyl-2H-indazol-5-yl)-2-{3-[3-(hydroxymethyl)piperazin-1-yl]-1,2,4-triazin-6-yl}phenol] as the compound, how does the IC50 read?
Answer: The IC50 was 0.0016 µM.

Question: With `Cc1cc(-c2ccc(-c3cnc(N4CCN[C@@H](C(C)C)C4)nn3)c(O)c2)cc2cn(C)nc12` [Cpd 140, 5-(2,7-dimethyl-2H-indazol-5-yl)-2-{3-[(3S)-3-(propan-2-yl)piperazin-1-yl]-1,2,4-triazin-6-yl}phenol] as the compound, how does the IC50 read?
Answer: Its IC50 is 0.0058 µM.

Question: Which IC50 does the source give for `C=C[C@H]1CN(c2ncc(-c3ccc(-c4cn[nH]c4)cc3O)nn2)C[C@@H](C)N1` [Cpd 249, 2-{3-[(3S,5R)-3-ethenyl-5-methylpiperazin-1-yl]-1,2,4-triazin-6-yl]-5-(1H-pyrazol-4-yl)phenol] here?
Answer: The IC50 was 0.319 µM.
